Patent US20260062422A1 (Halda Therapeutics OpCo, Inc., priority 2022, published 2026)

Legend:
[1] = system: VCaP cells; test: Cellular growth inhibition assay for VCaP cells, CellTiter-Glo; assay type: cell-based, human; conditions: 72 hours treatment, CellTiter-Glo 2.0
In short: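 GI50 values come from four-parameter curve fits of luminescence data normalized to a zero baseline. Compound, in medium with 0.5% DMSO, was added one day after plating and left for 72 h before CellTiter-Glo 2.0 addition.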

[2] = system: T-Rex 293 cell line SC3 cells lacking increased expression of androgen receptor protein; test: Cellular growth inhibition, T-Rex 293 SC3 cells without doxycycline, CellTiter-Glo; assay type: cell-based; conditions: 72 h, T-Rex 293 SC3 cells not exposed to doxycycline, CellTiter-Glo 2.0
In short: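 With DMSO (0.5%) vehicle as negative control, compounds treated SC3 cells for 72 h in medium containing charcoal-dextran FBS ± doxycycline. This T-Rex 293 clone expresses transfected wild-type AR on induction. Readout: CellTiter-Glo 2.0; GI50 by nonlinear regression.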

Compound	GI50 ([1]; Homo sapiens, VCaP, 72 h) [nM]	GI50 [1] [nM]	GI50 [2] [nM]
Cc1sc2c(c1C)C(c1ccc(Cl)cc1)=N[C@H](CC(=O)NCCOCCOCCOCCOCCN(C)c1ncc(C(=O)N[C@H]3C(C)(C)[C@H](Oc4ccc(C#N)c(Cl)c4)C3(C)C)cn1)c1nnc(C)n1-2 [Compound I-19]	> 3000	–	> 3000
Cc1sc2c(c1C)C(c1ccc(Cl)cc1)=N[C@@H](CC(=O)NCCOC1CCN(c3ncc(C(=O)N[C@H]4C(C)(C)[C@H](Oc5ccc(C#N)c(Cl)c5)C4(C)C)cn3)CC1)c1nnc(C)n1-2 [Compound I-6]	< 500	–	500 to 1500
Cc1sc2c(c1C)C(c1cccc(OCCOC3CCN(c4ncc(C(=O)N[C@H]5C(C)(C)[C@H](Oc6ccc(C#N)c(Cl)c6)C5(C)C)cn4)CC3)c1)=N[C@@H](CC(=O)O)c1nnc(C)n1-2 [Compound I-41]	> 3000	–	> 3000
Cc1sc2c(c1C)C(c1ccc(CC3CC4(CCN(c5ncc(C(=O)N[C@H]6C(C)(C)[C@H](Oc7ccc(C#N)c(Cl)c7)C6(C)C)cn5)CC4)C3)cc1)=N[C@@H](C)c1nnc(C)n1-2 [Compound I-303]	–	1500 to 3000	–
Cc1sc2c(c1C)C(c1ccc(Cl)cc1)=N[C@@H](CC(=O)NCCOCCOCCOCCOCCOC1CCN(c3ncc(C(=O)N[C@H]4C(C)(C)[C@H](Oc5ccc(C#N)c(Cl)c5)C4(C)C)cn3)CC1)c1nnc(C)n1-2 [Compound I-8]	< 500	–	1500 to 3000
CCNC(=O)C[C@@H]1N=C(c2ccc(N(C)CC3CN(c4ncc(C(=O)N[C@H]5C(C)(C)[C@H](Oc6ccc(C#N)c(Cl)c6)C5(C)C)cn4)C3)cc2)c2c(sc(C)c2C)-n2c(C)nnc21 [Compound I-107]	< 500	–	500 to 1500
Cc1sc2c(c1C)C(c1ccc(Cl)cc1)=N[C@@H](CC(=O)NCCOCCOCCOC1CCN(c3ncc(C(=O)N[C@H]4C(C)(C)[C@H](Oc5ccc(C#N)c(Cl)c5)C4(C)C)cn3)CC1)c1nnc(C)n1-2 [Compound I-7]	< 500	–	500 to 1500
Cc1sc2c(c1C)C(c1ccc(CC3CC(C4CCN(c5ncc(C(=O)N[C@H]6C(C)(C)[C@H](Oc7ccc(C#N)c(Cl)c7)C6(C)C)cn5)CC4)C3)cc1)=NC(Cc1ncco1)c1nnc(C)n1-2 (stereo partly shown) [Compound I-136]	< 500	–	> 3000
CCNC(=O)C[C@@H]1N=C(c2ccc(N3CC(N(C)C4CN(c5ncc(C(=O)N[C@H]6C(C)(C)[C@H](Oc7ccc(C#N)c(Cl)c7)C6(C)C)cn5)C4)C3)cc2)c2c(sc(C)c2C)-n2c(C)nnc21 [Compound I-121]	< 500	–	500 to 1500
Cc1sc2c(c1C)C(c1ccc(Cl)cc1)=N[C@@H](CC(=O)NCCN(C)c1ncc(C(=O)N[C@H]3C(C)(C)[C@H](Oc4ccc(C#N)c(Cl)c4)C3(C)C)cn1)c1nnc(C)n1-2 [Compound I-1, N-[3-(3-chloro-4-cyano-phenoxy)-2,2,4,4-tetramethyl-cyclobutyl]-2-[2-[[2-[(9S)-7-(4-chlorophenyl)-4,5,13-trimethyl-3-thia-1,8,11,12-tetrazatricyclo[8.3.0.02,6]trideca-2(6),4,7,10,12-pentaen-9-yl]acetyl]amino]ethyl-methyl-amino]pyrimidine-5-carboxamide]	–	–	1500 to 3000
Cc1sc2c(c1C)C(c1ccc(Cl)cc1)=N[C@@H](CC(=O)NCCOCCOCCOCC1CCN(c3ncc(C(=O)N[C@H]4C(C)(C)[C@H](Oc5ccc(C#N)c(Cl)c5)C4(C)C)cn3)CC1)c1nnc(C)n1-2 [Compound I-17]	–	–	500 to 1500

Second part, led by results:

GI50 ([1]; Homo sapiens, VCaP, 72 h) [nM]	GI50 [1] [nM]	Compound	GI50 [2] [nM]
500 to 1500	–	CCNC(=O)C[C@@H]1N=C(c2ccc(N(C)C3CC(OC4CCN(c5ncc(C(=O)N[C@H]6C(C)(C)[C@H](Oc7ccc(C#N)c(Cl)c7)C6(C)C)cn5)CC4)C3)cc2)c2c(sc(C)c2C)-n2c(C)nnc21 (stereo partly shown) [Compound I-130]	500 to 1500
< 500	–	Cc1sc2c(c1C)C(c1ccc(OC3CN(CC4CCN(c5ncc(C(=O)N[C@H]6C(C)(C)[C@H](Oc7ccc(C#N)c(Cl)c7)C6(C)C)cn5)CC4)C3)cc1)=N[C@H](Cc1ncco1)c1nnc(C)n1-2 [Compound I-169]	> 3000
> 3000	–	Cc1sc2c(c1C)C(c1ccc(OCCOCCOC3CCN(c4ncc(C(=O)N[C@H]5C(C)(C)[C@H](Oc6ccc(C#N)c(Cl)c6)C5(C)C)cn4)CC3)cc1)=N[C@@H](CC(=O)O)c1nnc(C)n1-2 [Compound I-39]	> 3000
> 3000	–	Cc1sc2c(c1C)C(c1cccc(OCCOCCOCCOC3CCN(c4ncc(C(=O)N[C@H]5C(C)(C)[C@H](Oc6ccc(C#N)c(Cl)c6)C5(C)C)cn4)CC3)c1)=N[C@@H](CC(=O)O)c1nnc(C)n1-2 [Compound I-43]	> 3000
< 500	–	Cc1sc2c(c1C)C(c1ccc(Cl)cc1)=N[C@@H](CC(=O)NCCOCCOCCOCCOCCN(C)c1ncc(C(=O)N[C@H]3C(C)(C)[C@H](Oc4ccc(C#N)c(Cl)c4)C3(C)C)cn1)c1nnc(C)n1-2 [Compound I-3, N-((1r,3r)-3-(3-chloro-4-cyanophenoxy)-2,2,4,4-tetramethylcyclobutyl)-2-((1-((S)-4-(4-chlorophenyl)-2,3,9-trimethyl-6H-thieno[3,2-f][1,2,4]triazolo[4,3-a][1,4]diazepin-6-yl)-2-oxo-6,9,12,15-tetraoxa-3-azaheptadecan-17-yl)(methyl)amino)pyrimidine-5-carboxamide]	> 3000
< 500	–	CCNC(=O)C[C@@H]1N=C(c2ccc(OCCOCCOCCOC3CCN(c4ncc(C(=O)N[C@H]5C(C)(C)[C@H](Oc6ccc(C#N)c(Cl)c6)C5(C)C)cn4)CC3)cc2)c2c(sc(C)c2C)-n2c(C)nnc21 [Compound I-45, N-((1r,3r)-3-(3-chloro-4-cyanophenoxy)-2,2,4,4-tetramethylcyclobutyl)-2-(4-(2-(2-(2-(4-((S)-6-(2-(ethylamino)-2-oxoethyl)-2,3,9-trimethyl-6H-thieno[3,2-f][1,2,4]triazolo[4,3-a][1,4]diazepin-4-yl)phenoxy)ethoxy)ethoxy)ethoxy)piperidin-1-yl)pyrimidine-5-carboxamide]	500 to 1500
< 500	–	CCNC(=O)C[C@@H]1N=C(c2ccc(N3CCC(OC4CCN(c5ncc(C(=O)N[C@H]6C(C)(C)[C@H](Oc7ccc(C#N)c(Cl)c7)C6(C)C)cn5)CC4)CC3)cc2)c2c(sc(C)c2C)-n2c(C)nnc21 [Compound I-114]	500 to 1500
< 500	–	Cc1sc2c(c1C)C(c1ccc(OC3CC4(CCN(c5ncc(C(=O)N[C@H]6C(C)(C)[C@H](Oc7ccc(C#N)c(Cl)c7)C6(C)C)cn5)CC4)C3)cc1)=NC(Cc1ncco1)c1nnc(C)n1-2 (stereo partly shown) [Compound I-166]	500 to 1500
> 3000	–	Cc1sc2c(c1C)C(c1ccc(OCCOCCOCCOC3CCN(c4ncc(C(=O)N[C@H]5C(C)(C)[C@H](Oc6ccc(C#N)c(Cl)c6)C5(C)C)cn4)CC3)cc1)=N[C@@H](CC(=O)O)c1nnc(C)n1-2 [Compound I-40]	> 3000
< 500	–	Cc1sc2c(c1C)C(c1ccc(C#CC3CC4(CCN(c5ncc(C(=O)N[C@H]6C(C)(C)[C@H](Oc7ccc(C#N)c(Cl)c7)C6(C)C)cn5)CC4)C3)cc1)=N[C@@H](Cc1ncco1)c1nnc(C)n1-2 [Compound I-267]	< 500
500 to 1500	–	CCNC(=O)C[C@@H]1N=C(c2ccc(OCCOC3CCN(c4ncc(C(=O)N[C@H]5C(C)(C)[C@H](Oc6ccc(C#N)c(Cl)c6)C5(C)C)cn4)CC3)c(F)c2)c2c(sc(C)c2C)-n2c(C)nnc21 [Compound I-76]	500 to 1500
< 500	–	CCNC(=O)C[C@@H]1N=C(c2ccc(OCCOCCOC3CCN(c4ncc(C(=O)N[C@H]5C(C)(C)[C@H](Oc6ccc(C#N)c(Cl)c6)C5(C)C)cn4)CC3)cc2)c2c(sc(C)c2C)-n2c(C)nnc21 [Compound I-44]	500 to 1500
